One series concerns wild-type HIV-1. Kind of series: Antiviral assay in MT-2 cells, wild-type HIV-1. It counts as cell-based. Conditions: Human immunodeficiency virus 1, 120 h; MT2 cells, wild-type HIV-1, 5 days; read-out: wt. As to the method:
For the antiviral assay utilizing MT-2 cells, 50 μL of 2× test concentration of 3-fold serially diluted compound in culture medium with 10% FBS was added to each well of a 96-well plate (9 concentrations) in triplicate. MT-2 cells were infected with wild-type or mutant variants of HIV-1 for 3 hours using a volume of viral inoculum determined to produce 90% cell killing. Fifty microliters of infected cell suspension in culture medium with 10% FBS (˜1.5×10^4 cells) was then added to each well containing 50 μL of serially diluted compound. The plates with HIV-infected cultures were then incubated at 37° C. for 5 days in the presence of the tested compounds. After 5 days of incubation, 100 μL of CellTiter-Glo™ Reagent (catalog # G7571, Promega Biosciences, Inc., Madison, Wis.) was added to each well. Cell lysis was carried out by incubating at room temperature for 10 min followed by a chemiluminescence read-out.
The chemiluminescence readout from the 10-point antiviral dose response was analyzed directly by curve fitting with equation (I) to determine the EC50.
where y=Cell Survival, M=maximum cell survival enabled by drug protection, H=baseline cell survival without drug protection, n=Hill coefficient of the antiviral dose response, m=Hill coefficient of the cytotoxicity dose response, and [I]=inhibitor concentration.
EC50 values (mean±standard deviation) were calculated from at least three independent experiments performed in triplicate. The fold-change in antiviral activity of tested compounds was calculated as a ratio of the mean EC50 for each mutant virus divided by the mean EC50 of the control WT virus.

Series [1] in a line: Pharmacokinetics after oral administration to male SD rats. It counts as in vivo. The conditions noted are these: Sprague-Dawley, plasma, rat, oral gavage 0.5 mg/kg, solution, read-out: % F (solution). As to the method:
Pharmacokinetic analysis was performed on compounds 25b and 39 following intravenous or oral administration to rats.
The test compounds were formulated in 5% Ethanol, 55% PEG 300, and 40% water at 0.1 mg/mL for IV infusion and for oral dosing.
Each dosing group consisted of 3 male, Sprague-Dawley rats. At dosing, the animals weighed an average of 0.25 kg. The animals were fasted overnight prior to dose administration and up to 4 hr after dosing.
For the IV infusion group, the test article was administered by intravenous infusion over 30 min. The rate of infusion was adjusted according to the body weight of each animal to deliver a dose of 0.5 mg/kg. For the oral dosing group, the test article was administered by oral gavage at 5 mL/kg for a dose of 0.5 mg/kg.
For pharmacokinetic analysis of orally administered compounds, serial venous blood samples (approximately 0.3 mL each) were taken from each animal at time points of 0, 0.25, 0.50, 1.0, 2.0, 4.0, 6.0, 8.0, 12.0 24.0, 48.0 and 72 hours after dosing. Blood samples were collected, prepared and analyzed in a similar way to the intravenous studies described above. Non-compartmental pharmacokinetic analysis was performed on the plasma concentration-time data. In Table 2, F (%) refers to oral bioavailability.

A further series has as its target OCT2 (Homo sapiens (Human), UniProt O15244). Kind of series: OCT2 inhibition assay (14C-TEA uptake, OCT2-transfected MDCKII cells). It counts as cell-based. As to the method: MDCKII cells were maintained in minimal essential medium (MEM) with 1% Pen/Strep, 10% fetal bovine serum, and 0.25 mg/mL hygromycin B in an incubator set at 37° C., 90% humidity and 5% CO2. 24 hours prior to assay, media containing 5 mM sodium butyrate were added to MDCKII cells in flasks, and cells were grown to 80-90% confluence. On assay day, cells were trypsinized and resuspended in Krebs-Henseleit Buffer (KHB), pH 7.4 at […]. Cells were preincubated for 15 min in assay plate before addition of test compound or substrate.
Test compounds were serially diluted in DMSO and then spiked (2 μL) into in 0.4 mL KHB buffer containing wild-type or OCT2-transfected cells and incubated for 10 minutes. Assay was initiated with the addition of 0.1 mL of 100 μM ^14C-TEA in KHB buffer (20 μM final concentration after mixing). The concentration of TEA is based on the Km. After 10 minutes of incubation, the assay mixture was quenched with addition of 0.5 mL of ice-cold 1×PBS buffer. Samples were then centrifuged at 1000 rpm for 5 min and supernatants were removed. Wash steps were repeated four times with ice-cold PBS. Finally, the cell pellets were lysed with 0.2N NaOH and let sit at room temperature for at least 30 min to ensure complete lysis. Samples were then counted on liquid scintillation counter and dpm counts were used to perform the following calculations. The % inhibition was calculated as follows: % inhibition=[1−{[OCT2]i−[WT]ni}/{[OCT2]ni−[WT]ni}]*100 where, [OCT2]i represents the dpm count in the presence of test compound for either OCT2 cells, […] of test compound for OCT2 cells and [WT]ni represents the dpm count in the absence of test compound for wild type cells, respectively.

In the next series the test system is HIV-IIIb. The experiment in a line: Antiviral assay in MT4 cells. It counts as cell-based. The conditions noted are these: Human immunodeficiency virus 1, IIIB, MT4, 120 h, MT4 cells, HIV-IIIb, 5 days; read-out: EC50. In a few lines: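 MT4 cells infected with HIV-IIIb (0.004 m.o.i.) or mock-infected, then plated at 2000 cells per well with compound. After 5 days at 37 °C, cell viability read by CellTiter-Glo chemiluminescence.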

OCT2, sequence (O15244 whole entry): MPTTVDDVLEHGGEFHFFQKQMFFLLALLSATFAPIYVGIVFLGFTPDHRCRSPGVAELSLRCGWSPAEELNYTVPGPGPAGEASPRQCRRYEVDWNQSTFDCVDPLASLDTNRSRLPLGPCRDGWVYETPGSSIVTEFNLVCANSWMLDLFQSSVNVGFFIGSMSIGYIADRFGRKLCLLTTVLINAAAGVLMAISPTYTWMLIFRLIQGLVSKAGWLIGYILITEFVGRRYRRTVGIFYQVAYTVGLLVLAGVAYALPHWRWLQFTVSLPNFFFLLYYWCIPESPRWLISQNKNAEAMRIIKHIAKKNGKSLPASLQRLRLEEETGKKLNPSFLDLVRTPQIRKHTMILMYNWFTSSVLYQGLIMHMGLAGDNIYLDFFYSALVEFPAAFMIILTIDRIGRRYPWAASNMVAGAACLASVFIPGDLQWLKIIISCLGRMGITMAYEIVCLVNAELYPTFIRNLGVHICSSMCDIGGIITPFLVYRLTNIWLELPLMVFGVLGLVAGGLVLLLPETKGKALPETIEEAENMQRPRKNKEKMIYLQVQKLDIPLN

As to `CCN1C(=O)c2c(O)c(=O)c(C(=O)NCc3ccc(F)c(Cl)c3F)cn2[C@H]2CCO[C@H]21` [Compound 25b], the EC50 in the series with wild-type HIV-1 worked out at 1.4 nM; in the series with HIV-IIIb, 4.37 nM. In series [1], the bioavailability was found to be 39%. Inhibition at OCT2 was half-maximal at 10 µM (IC50).

Take `CCN1C(=O)c2c(O)c(=O)c(C(=O)NCc3ccc(F)c(Cl)c3F)cn2[C@H]2CCOC[C@H]21` [Compound 39]: the EC50 with wild-type HIV-1 was determined as 0.9 nM; in the series with HIV-IIIb, 2.58 nM. Moreover, the bioavailability in series [1] amounted to 15%. Moreover, the IC50 (usually the concentration that inhibits the measured activity by half) against OCT2 amounted to 10 µM.
